The values below come from US10155971B2, “Rapid antibiotic susceptibility testing system based on bacterial immobilization using gelling agent, antibiotic diffusion and tracking of single bacterial cells” (SNU R & DB FOUNDATION, priority 2012, dated 2018).

The MIC is the lowest concentration found to suppress growth.

Experiment [1] relates to Escherichia coli ATCC 25922. The experiment is described as follows: Rapid antibiotic susceptibility test (RAST) in microfluidic agarose channel (MAC), MIC by single-cell time-lapse imaging. The class given is cell-based. As to conditions: E. coli ATCC 25922, RAST method in MAC; for MIC: Escherichia coli, ATCC25922. The method, then:
Radial microfluidic channels with six branches were formed using soft-lithography. First, SU8 mold (2015 SU8, Microchem) was fabricated by employing photolithography. Polydimethylsiloxane (PDMS, Dow Corning) was mixed with a curing agent (10:1, w/w) and poured into the SU8. After baking at 150° C. for 10 min, the PDMS was peeled off and attached to the PDMS-coated slide glass by O2 plasma treatment to obtain a radial microfluidic channel chip capable of testing antibiotics having five concentrations and a control with no antibiotic. There were six main channels that carried one side-branched channel each. […] A mixture of agarose and bacteria was allowed to flow in the main channels, and the bioactive agents were allowed to flow in the respective side-branched channels. In the middle of each main channel, there were anchors in the form of micro-sized posts for forming an interface between the agarose and each of the bioactive agents. The posts blocked the agarose from flowing into the side-branched channel. The sizes of the posts and the pitches between the posts were determined by mathematical calculations. For appropriate hydrophobicity to occur in the channel, the channel was prepared one day before experiment to increase the surface tension after O2 plasma treatment. Agarose is solidified at a temperature lower than 36° C. The cultured bacteria were mixed with 2% agarose (1:3, v/v) at 45° C. and immediately injected into the microfluidic channels. The agarose-bacteria mixture was solidified at 25° C. for 1 min. The obtained microfluidic agarose channel (MAC) chip was placed on a hot plate and incubated at 37° C. To provide nutrients, liquid CAMHB medium was supplied through the side-branched channels. The growth of the bacteria was monitored using a microscope. Bacterial growth was not inhibited and could be clearly monitored in the MAC system. Bacterial cell images were taken with a CCD camera; the images were then processed to determine the MIC values of the antibiotics. The image data were transformed into digital data using an image processing program, which is coded in Matlab. For the calculations, RGB images were transformed into grey formatted images. The background data were eliminated to obtain sharp data without noise. Then, the contrast was enhanced to change the processed images into binary format images. […] The Matlab program calculated the areas that were occupied by each bacterium. A longer incubation time allowed each bacterium to grow and occupy more area. The occupied areas were measured using the image processing program. […] Bacterial growth was monitored by using a microscope (40×) and a CCD camera. Images of bacterial growth were taken every hour and were analyzed by using the image processing program. […]

In experiment [2] the test system is Staphylococcus aureus ATCC 29213. The description is as above. The class given is cell-based. As to conditions: S. aureus ATCC 29213, RAST method in MAC; for MIC: Staphylococcus aureus, ATCC29213. The method, then: (§1) Radial microfluidic channels with six branches were formed using soft-lithography. First, SU8 mold (2015 SU8, Microchem) was fabricated by employing photolithography. Polydimethylsiloxane (PDMS, Dow Corning) was mixed with a curing agent (10:1, w/w) and poured into the SU8. After baking at 150° C. for 10 min, the PDMS was peeled off and attached to the PDMS-coated slide glass by O2 plasma treatment to obtain a radial microfluidic channel chip capable of testing antibiotics having five concentrations and a control with no antibiotic. There were six main channels that carried one side-branched channel each. […] A mixture of agarose and bacteria was allowed to flow in the main channels, and the bioactive agents were allowed to flow in the respective side-branched channels. In the middle of each main channel, there were anchors in the form of micro-sized posts for forming an interface between the agarose and each of the bioactive agents. The posts blocked the agarose from flowing into the side-branched channel. The sizes of the posts and the pitches between the posts were determined by mathematical calculations. For appropriate hydrophobicity to occur in the channel, the channel was prepared one day before experiment to increase the surface tension after O2 plasma treatment. Agarose is solidified at a temperature lower than 36° C. The cultured bacteria were mixed with 2% agarose (1:3, v/v) at 45° C. and immediately injected into the microfluidic channels. The agarose-bacteria mixture was solidified at 25° C. for 1 min. The obtained microfluidic agarose channel (MAC) chip was placed on a hot plate and incubated at 37° C. To provide nutrients, liquid CAMHB medium was supplied through the side-branched channels. The growth of the bacteria was monitored using a microscope. Bacterial growth was not inhibited and could be clearly monitored in the MAC system. Bacterial cell images were taken with a CCD camera; the images were then processed to determine the MIC values of the antibiotics. The image data were transformed into digital data using an image processing program, which is coded in Matlab. For the calculations, RGB images were transformed into grey formatted images. The background data were eliminated to obtain sharp data without noise. Then, the contrast was enhanced to change the processed images into binary format images. […] The Matlab program calculated the areas that were occupied by each bacterium. A longer incubation time allowed each bacterium to grow and occupy more area. The occupied areas were measured using the image processing program. 200 μl of Mueller-Hinton agar including 5×10^8 cells/ml bacterial cells and 600 μl of 2% liquid agarose at 45° C. was mixed thoroughly by a vortex generator (vortex Genie 2). The agarose-bacteria mixture was placed in the main channels of the microfluidic channel system using a syringe pump (KdScientific) at stable flow rate (2 ml/hr) to prevent bursting into the side-branched channels. After the liquid agarose was solidified at room temperature to immobilize the bacteria in the main channels, the MHA medium containing the antibiotic was injected into the side-branched channels using the syringe pump at a rate of 10 μl/hr to diffuse into the agarose-bacteria mixture. Bacterial growth was monitored by using a microscope (40×) and a CCD camera. Images of bacterial growth were taken every hour and were analyzed by using the image processing program. […] The obtained MIC values were verified by the conventional method (microdilution method) and compared with the MIC data of the CLSI. […] The images of the left group are RGB images before processing, and the images of the right group are images after processing for clear observation. After image processing, the bacteria that occupied the area were measured and plotted on the graph for different concentrations of gentamicin according to the incubation time. […] The MIC values were in the MIC ranges of the CLSI data.

Experiment [3] deals with Pseudomonas aeruginosa ATCC 27853. The experiment is described as above. The class given is cell-based. Conditions: P. aeruginosa ATCC 27853, RAST method in MAC; for MIC: Pseudomonas aeruginosa, ATCC27853. The method, then: as §1
The subject of another experiment is S. aureus ATCC 29213. Conditions: CLSI range; cited from earlier work.
The test system of a further experiment is E. coli ATCC 25922. As to conditions: CLSI range; cited from earlier work.
The test system of the next experiment is P. aeruginosa ATCC 27853. Conditions: CLSI range; cited from earlier work.
The test system of experiment [4] is P. aeruginosa ATCC 27853 biofilm. As to the kind of experiment: Antibiotic susceptibility of biofilms in the MAC system. The experiment is classed as cell-based, Pseudomonas aeruginosa. As to conditions: biofilm formation by 4 hr aging in the MAC system.

Converted amounts (≈) assume the structure as drawn.

As for `NCC[C@H](O)C(=O)N[C@@H]1C[C@H](N)[C@@H](O[C@H]2O[C@H](CN)[C@@H](O)[C@H](O)[C@H]2O)[C@H](O)[C@H]1O[C@H]1O[C@H](CO)[C@@H](O)[C@H](N)[C@H]1O` [Amikacin], the minimal inhibitory concentration (MIC) in experiment [1], in experiment [2] and in experiment [3] was 4 µg/mL (≈ 6.83 µM) each time. Moreover, the “MIC, CLSI” value is 1 to 4 µg/mL in the experiment with S. aureus ATCC 29213, 0.5 to 4 µg/mL with E. coli ATCC 25922 and 1 to 4 µg/mL with P. aeruginosa ATCC 27853.
As to `CCn1cc(C(=O)O)c(=O)c2cc(F)c(N3CCNCC3)cc21` [Norfloxacin], the MIC in experiment [1] turned out to be 0.03 µg/mL (≈ 0.0939 µM); in experiment [2] it was 0.5 µg/mL (≈ 1.57 µM); in experiment [3] it was 2 µg/mL (≈ 6.26 µM). In experiment [4], the “MIC value after biofilm formation” value was 32 µg/mL (≈ 100 µM). Also, the “MIC, CLSI” value was 0.5 to 2 µg/mL with S. aureus ATCC 29213, 0.03 to 0.12 µg/mL in the experiment with E. coli ATCC 25922 and 1 to 4 µg/mL in the experiment with P. aeruginosa ATCC 27853.
For `CN(C)[C@@H]1C(O)=C(C(N)=O)C(=O)[C@@]2(O)C(O)=C3C(=O)c4c(O)cccc4[C@@](C)(O)[C@H]3C[C@@H]12` [Tetracycline], the minimal inhibitory concentration (MIC) in experiment [1] amounted to 1 µg/mL (≈ 2.25 µM); in experiment [2], 0.5 µg/mL (≈ 1.13 µM); in experiment [3] it was 32 µg/mL (≈ 72 µM).
As to gentamicin [Geninmycin], the results for the “MIC, RAST” value in experiment [1], in experiment [2] and in experiment [3] were 1 µg/mL, 1 µg/mL and 2 µg/mL, respectively. Besides, the figures for the “MIC, CLSI” value in the experiment with S. aureus ATCC 29213, in the experiment on E. coli ATCC 25922 and in the experiment on P. aeruginosa ATCC 27853 were 0.12 to 1 µg/mL, 0.25 to 1 µg/mL and 0.5 to 2 µg/mL, respectively.
